In patent US10221197B2, “Phosphatidylinositol 3-kinase inhibitors” (Gilead Sciences, Inc., priority 2014, dated 2019):

Tests used:
Type in all cases: biochemical
PI3Kγ = PI3Kγ (Homo sapiens (Human), UniProt P48736); assay: TR-FRET enzymatic assay of PI3K isoforms (PI3Kγ); details: TR-FRET, 2×Km ATP, 2 μM PIP2, PI3Kγ at 2 nM, incubated for 30 minutes at 25° C.; read-out: γ IC50
Procedure: (§1) The compounds of formula (I) were characterized for their enzymatic activity against the PI3K isoforms. Certain compounds of the present application, including certain compounds of formula (II) and (III) were also characterized for their enzymatic activity against PI3K isoforms. The activities were measured using a time-resolved fluorescence resonance energy transfer (TR-FRET) assay.

PI3Kδ = PI3Kδ (Homo sapiens (Human), UniProt O00329); assay: TR-FRET enzymatic assay of PI3K isoforms (PI3Kδ); details: 2×Km ATP, 2 μM PIP2, incubated for 30 minutes at 25° C., read-out: δ IC50
PI3Kδ, sequence (O00329 whole entry, canonical isoform): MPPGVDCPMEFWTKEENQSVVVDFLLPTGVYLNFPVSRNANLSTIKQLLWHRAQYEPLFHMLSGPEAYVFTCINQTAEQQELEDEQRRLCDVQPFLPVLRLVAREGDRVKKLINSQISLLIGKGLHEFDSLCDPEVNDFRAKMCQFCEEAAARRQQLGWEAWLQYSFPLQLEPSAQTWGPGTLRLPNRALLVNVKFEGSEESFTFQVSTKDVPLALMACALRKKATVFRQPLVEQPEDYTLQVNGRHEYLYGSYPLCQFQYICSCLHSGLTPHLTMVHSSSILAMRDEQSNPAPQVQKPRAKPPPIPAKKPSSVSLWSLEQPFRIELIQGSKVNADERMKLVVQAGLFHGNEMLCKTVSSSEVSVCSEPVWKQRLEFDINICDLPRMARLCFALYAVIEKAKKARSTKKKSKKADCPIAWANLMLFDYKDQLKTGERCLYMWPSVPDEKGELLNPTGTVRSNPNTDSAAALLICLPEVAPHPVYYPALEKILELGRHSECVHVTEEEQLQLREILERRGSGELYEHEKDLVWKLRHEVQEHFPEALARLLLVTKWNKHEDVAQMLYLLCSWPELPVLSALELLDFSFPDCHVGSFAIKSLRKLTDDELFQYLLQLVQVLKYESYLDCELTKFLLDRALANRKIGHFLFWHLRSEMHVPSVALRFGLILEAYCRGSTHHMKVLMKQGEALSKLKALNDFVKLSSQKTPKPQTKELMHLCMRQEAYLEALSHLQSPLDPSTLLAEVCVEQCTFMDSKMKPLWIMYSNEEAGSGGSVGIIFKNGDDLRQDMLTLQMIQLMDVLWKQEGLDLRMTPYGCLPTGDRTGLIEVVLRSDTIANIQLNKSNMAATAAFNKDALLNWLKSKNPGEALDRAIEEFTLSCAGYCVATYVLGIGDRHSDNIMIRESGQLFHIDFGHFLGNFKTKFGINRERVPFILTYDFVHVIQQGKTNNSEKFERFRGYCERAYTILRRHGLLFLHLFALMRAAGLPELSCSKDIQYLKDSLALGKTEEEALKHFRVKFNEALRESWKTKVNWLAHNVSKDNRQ
PI3Kδ, sequence (P27986 whole entry partner, canonical isoform): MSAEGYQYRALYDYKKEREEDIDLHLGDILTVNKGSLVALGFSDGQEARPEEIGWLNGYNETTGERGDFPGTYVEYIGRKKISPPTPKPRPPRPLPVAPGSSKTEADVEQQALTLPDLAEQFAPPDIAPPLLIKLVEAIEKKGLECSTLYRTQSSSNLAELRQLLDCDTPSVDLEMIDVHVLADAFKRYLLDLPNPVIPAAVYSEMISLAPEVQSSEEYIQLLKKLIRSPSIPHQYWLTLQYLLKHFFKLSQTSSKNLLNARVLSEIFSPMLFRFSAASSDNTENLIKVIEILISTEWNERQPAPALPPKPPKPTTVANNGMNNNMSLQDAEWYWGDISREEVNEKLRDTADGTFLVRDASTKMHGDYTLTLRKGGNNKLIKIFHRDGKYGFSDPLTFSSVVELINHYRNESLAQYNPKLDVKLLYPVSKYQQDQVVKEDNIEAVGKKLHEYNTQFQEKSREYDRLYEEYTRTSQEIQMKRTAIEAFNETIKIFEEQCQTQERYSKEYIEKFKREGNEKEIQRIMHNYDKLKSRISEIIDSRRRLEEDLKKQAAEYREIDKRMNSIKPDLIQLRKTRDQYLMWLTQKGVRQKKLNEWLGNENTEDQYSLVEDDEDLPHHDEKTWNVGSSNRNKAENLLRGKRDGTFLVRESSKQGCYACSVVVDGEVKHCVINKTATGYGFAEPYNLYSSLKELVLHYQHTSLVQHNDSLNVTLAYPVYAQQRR
Procedure: as §1

PI3Kβ = PI3Kβ (Homo sapiens (Human), UniProt P42338); assay: TR-FRET enzymatic assay of PI3K isoforms (PI3Kβ); details: TR-FRET, 2×Km ATP, 2 μM PIP2, incubated for 30 minutes at 25° C.; read-out: β IC50
PI3Kβ, sequence (P42338 whole entry, canonical isoform): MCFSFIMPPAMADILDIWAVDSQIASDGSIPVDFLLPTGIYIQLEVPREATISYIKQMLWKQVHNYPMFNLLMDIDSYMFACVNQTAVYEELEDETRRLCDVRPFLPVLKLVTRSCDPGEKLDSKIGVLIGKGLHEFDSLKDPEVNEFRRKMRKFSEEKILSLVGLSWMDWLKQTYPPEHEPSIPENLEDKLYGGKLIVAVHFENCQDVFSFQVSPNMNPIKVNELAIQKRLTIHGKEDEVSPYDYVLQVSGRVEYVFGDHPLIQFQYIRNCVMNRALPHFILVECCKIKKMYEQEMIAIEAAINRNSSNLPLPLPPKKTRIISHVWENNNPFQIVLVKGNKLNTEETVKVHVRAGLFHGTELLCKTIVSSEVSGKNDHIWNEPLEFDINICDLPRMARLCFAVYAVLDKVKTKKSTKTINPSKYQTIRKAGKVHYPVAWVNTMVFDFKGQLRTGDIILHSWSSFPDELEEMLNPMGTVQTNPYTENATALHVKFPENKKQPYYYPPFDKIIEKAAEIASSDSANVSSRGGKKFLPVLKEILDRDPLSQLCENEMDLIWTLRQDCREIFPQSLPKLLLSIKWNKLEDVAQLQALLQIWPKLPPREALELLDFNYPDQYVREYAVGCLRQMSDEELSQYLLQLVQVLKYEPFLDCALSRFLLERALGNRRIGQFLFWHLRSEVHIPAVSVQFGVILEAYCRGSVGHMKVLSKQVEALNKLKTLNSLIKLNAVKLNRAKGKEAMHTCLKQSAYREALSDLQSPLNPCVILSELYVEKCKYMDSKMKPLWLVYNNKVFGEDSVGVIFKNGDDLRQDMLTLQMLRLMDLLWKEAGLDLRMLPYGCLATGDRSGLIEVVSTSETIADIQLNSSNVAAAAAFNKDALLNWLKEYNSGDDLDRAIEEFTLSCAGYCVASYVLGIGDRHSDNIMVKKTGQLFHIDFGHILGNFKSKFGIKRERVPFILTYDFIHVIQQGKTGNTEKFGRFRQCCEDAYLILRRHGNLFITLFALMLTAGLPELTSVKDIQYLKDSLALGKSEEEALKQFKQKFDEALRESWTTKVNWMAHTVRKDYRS
PI3Kβ, sequence (P27986 whole entry partner, canonical isoform): as the sequence (P27986 whole entry partner, canonical isoform) above
Procedure: as §1

PI3Kγ, sequence (P48736 whole entry, canonical isoform): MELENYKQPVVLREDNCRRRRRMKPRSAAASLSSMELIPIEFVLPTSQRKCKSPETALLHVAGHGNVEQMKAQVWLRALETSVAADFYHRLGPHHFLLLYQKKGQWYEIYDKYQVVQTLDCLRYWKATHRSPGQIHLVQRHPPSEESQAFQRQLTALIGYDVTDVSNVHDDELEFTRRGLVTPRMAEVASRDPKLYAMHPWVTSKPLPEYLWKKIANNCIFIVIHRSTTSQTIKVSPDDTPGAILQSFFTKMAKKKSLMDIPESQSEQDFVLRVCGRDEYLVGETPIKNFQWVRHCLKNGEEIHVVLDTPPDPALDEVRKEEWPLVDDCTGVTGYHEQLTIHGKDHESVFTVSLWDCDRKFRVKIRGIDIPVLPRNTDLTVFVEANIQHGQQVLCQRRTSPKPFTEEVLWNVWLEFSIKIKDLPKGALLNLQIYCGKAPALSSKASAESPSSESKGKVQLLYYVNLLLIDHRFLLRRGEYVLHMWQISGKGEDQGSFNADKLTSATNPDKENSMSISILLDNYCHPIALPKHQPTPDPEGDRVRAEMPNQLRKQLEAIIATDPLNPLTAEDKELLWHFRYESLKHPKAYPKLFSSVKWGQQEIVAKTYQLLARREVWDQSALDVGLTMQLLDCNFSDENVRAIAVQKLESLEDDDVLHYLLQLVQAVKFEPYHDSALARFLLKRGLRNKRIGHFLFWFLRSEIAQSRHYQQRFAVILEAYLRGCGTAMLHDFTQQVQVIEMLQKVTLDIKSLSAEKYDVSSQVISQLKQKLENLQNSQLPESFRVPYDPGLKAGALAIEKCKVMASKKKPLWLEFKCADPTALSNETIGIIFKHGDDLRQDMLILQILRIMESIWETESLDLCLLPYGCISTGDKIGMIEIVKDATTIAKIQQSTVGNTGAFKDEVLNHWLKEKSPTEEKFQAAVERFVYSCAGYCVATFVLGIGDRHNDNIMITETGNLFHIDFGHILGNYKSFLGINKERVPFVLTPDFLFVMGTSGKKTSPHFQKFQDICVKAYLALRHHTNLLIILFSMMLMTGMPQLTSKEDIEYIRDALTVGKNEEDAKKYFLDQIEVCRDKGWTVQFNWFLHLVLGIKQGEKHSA
PI3Kγ, sequence (Q8WYR1 whole entry partner, canonical isoform): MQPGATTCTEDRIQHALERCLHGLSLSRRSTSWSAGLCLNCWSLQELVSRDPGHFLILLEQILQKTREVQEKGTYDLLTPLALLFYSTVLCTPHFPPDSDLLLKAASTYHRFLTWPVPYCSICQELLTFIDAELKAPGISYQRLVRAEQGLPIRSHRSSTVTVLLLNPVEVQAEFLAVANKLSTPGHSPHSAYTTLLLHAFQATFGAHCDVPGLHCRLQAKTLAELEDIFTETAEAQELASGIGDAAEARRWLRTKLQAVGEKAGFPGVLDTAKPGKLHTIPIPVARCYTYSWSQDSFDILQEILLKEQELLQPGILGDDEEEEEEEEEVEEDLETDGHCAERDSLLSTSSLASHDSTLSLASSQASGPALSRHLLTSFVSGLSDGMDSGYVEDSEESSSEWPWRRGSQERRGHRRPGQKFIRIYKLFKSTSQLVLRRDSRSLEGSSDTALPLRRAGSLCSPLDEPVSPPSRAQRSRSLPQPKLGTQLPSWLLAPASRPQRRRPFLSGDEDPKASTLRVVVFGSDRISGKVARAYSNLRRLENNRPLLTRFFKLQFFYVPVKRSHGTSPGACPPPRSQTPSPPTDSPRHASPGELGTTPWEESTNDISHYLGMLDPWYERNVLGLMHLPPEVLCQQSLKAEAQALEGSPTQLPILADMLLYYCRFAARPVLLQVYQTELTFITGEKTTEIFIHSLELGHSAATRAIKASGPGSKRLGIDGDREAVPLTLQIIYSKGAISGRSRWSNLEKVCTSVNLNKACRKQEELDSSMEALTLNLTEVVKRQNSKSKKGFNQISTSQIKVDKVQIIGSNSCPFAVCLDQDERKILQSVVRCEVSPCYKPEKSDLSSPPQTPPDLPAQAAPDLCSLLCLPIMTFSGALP

Row | Structure (SMILES) | IC50 (PI3Kγ) | IC50 (PI3Kδ) | IC50 (PI3Kβ)
1 | C[C@H](Nc1ncnc(N)c1C#N)c1nc2cccc(Cl)c2c(=O)n1-c1cccc(NC(=O)Nc2ccccc2OCCO)c1 [Compound 143, (S)-1-(3-(2-(1-((6-amino-5-cyanopyrimidin-4-yl)amino)ethyl)-5-chloro-4-oxoquinazolin-3(4H)-yl)phenyl)-3-(2-(2-hydroxyethoxy)phenyl)urea] | 1500 nM | 5 nM | 7 nM
2 | C[C@H](Nc1ncnc(N)c1C#N)c1nc2cccc(Cl)c2c(=O)n1-c1cccc(NC(=O)Nc2ccccc2S(C)(=O)=O)c1 [Compound 144, (S)-1-(3-(2-(1-((6-amino-5-cyanopyrimidin-4-yl)amino)ethyl)-5-chloro-4-oxoquinazolin-3(4H)-yl)phenyl)-3-(2-(methylsulfonyl)phenyl)urea] | 6500 nM | 4 nM | 17 nM
3 | C[C@H](Oc1ncnc2scnc12)c1nc2cccc(Cl)c2c(=O)n1-c1cccc(NC(=O)NC2CCCC2)c1 [Compound 146, (S)-1-(3-(5-chloro-4-oxo-2-(1-(thiazolo[5,4-d]pyrimidin-7-yloxy)ethyl)quinazolin-3(4H)-yl)phenyl)-3-cyclopentylurea] | 2200 nM | 6 nM | 57 nM
4 | C[C@H](Oc1ncnc2scnc12)c1nc2cccc(Cl)c2c(=O)n1-c1cccc(NC(=O)NC2(C(F)(F)F)CC2)c1 [Compound 147, (S)-1-(3-(5-chloro-4-oxo-2-(1-(thiazolo[5,4-d]pyrimidin-7-yloxy)ethyl)quinazolin-3(4H)-yl)phenyl)-3-(1-(trifluoromethyl)cyclopropyl)urea] | 2300 nM | 12 nM | 16 nM
5 | C[C@H](Oc1ncnc2scnc12)c1nc2cccc(Cl)c2c(=O)n1-c1cccc(NC(=O)NCC(F)F)c1 [Compound 148, (S)-1-(3-(5-chloro-4-oxo-2-(1-(thiazolo[5,4-d]pyrimidin-7-yloxy)ethyl)quinazolin-3(4H)-yl)phenyl)-3-(2,2-difluoroethyl)urea] | 1800 nM | 5 nM | 8 nM
6 | C[C@H](Oc1ncnc2scnc12)c1nc2cccc(Cl)c2c(=O)n1-c1cccc(NC(=O)Nc2cc(C(F)(F)F)no2)c1 [Compound 150, (S)-1-(3-(5-chloro-4-oxo-2-(1-(thiazolo[5,4-d]pyrimidin-7-yloxy)ethyl)quinazolin-3(4H)-yl)phenyl)-3-(3-(trifluoromethyl)isoxazol-5-yl)urea] | 840 nM | 5 nM | 47 nM
7 | CCNC(=O)Nc1cccc(-n2c([C@H](C)Oc3ncnc4scnc34)nc3cccc(Cl)c3c2=O)c1 [Compound 151, (S)-1-(3-(5-chloro-4-oxo-2-(1-(thiazolo[5,4-d]pyrimidin-7-yloxy)ethyl)quinazolin-3(4H)-yl)phenyl)-3-ethylurea] | 1300 nM | 4 nM | 20 nM
8 | C[C@H](Oc1ncnc2scnc12)c1nc2cccc(Cl)c2c(=O)n1-c1cccc(NC(=O)NCC(F)(F)C(F)(F)F)c1 [Compound 152, (S)-1-(3-(5-chloro-4-oxo-2-(1-(thiazolo[5,4-d]pyrimidin-7-yloxy)ethyl)quinazolin-3(4H)-yl)phenyl)-3-(2,2,3,3,3-pentafluoropropyl)urea] | 2500 nM | 10 nM | 17 nM
9 | CONC(=O)Nc1cccc(-n2c([C@H](C)Oc3ncnc4scnc34)nc3cccc(Cl)c3c2=O)c1 [Compound 153, (S)-1-(3-(5-chloro-4-oxo-2-(1-(thiazolo[5,4-d]pyrimidin-7-yloxy)ethyl)quinazolin-3(4H)-yl)phenyl)-3-methoxyurea] | 1600 nM | 4 nM | 48 nM
10 | CC(Oc1ncnc2scnc12)c1nc2cccc(Cl)c2c(=O)n1-c1cccc(NC(=O)NCC(F)(F)F)c1 (stereo not drawn) [Compound 154, 1-(3-(5-chloro-4-oxo-2-(1-(thiazolo[5,4-d]pyrimidin-7-yloxy)ethyl)quinazolin-3(4H)-yl)phenyl)-3-(2,2,2-trifluoroethyl)urea] | 1400 nM | 5 nM | 4 nM
11 | CC(Oc1ncnc2scnc12)c1nc2cccc(Cl)c2c(=O)n1-c1cccc(NC(=O)Nc2ccccc2Cl)c1 (stereo not drawn) [Compound 156, 1-(3-(5-chloro-4-oxo-2-(1-(thiazolo[5,4-d]pyrimidin-7-yloxy)ethyl)quinazolin-3(4H)-yl)phenyl)-3-(2-chlorophenyl)urea] | 930 nM | 2 nM | 41 nM
12 | C[C@H](Oc1ncnc2scnc12)c1nc2cccc(Cl)c2c(=O)n1-c1cccc(NC(=O)NCC2OCCO2)c1 [Compound 157, (S)-1-((1,3-dioxolan-2-yl)methyl)-3-(3-(5-chloro-4-oxo-2-(1-(thiazolo[5,4-d]pyrimidin-7-yloxy)ethyl)quinazolin-3(4H)-yl)phenyl)urea] | 3100 nM | 7 nM | 25 nM
13 | C[C@H](Oc1ncnc2scnc12)c1nc2cccc(Cl)c2c(=O)n1-c1cccc(NC(=O)NCCO)c1 [Compound 158, (S)-1-(3-(5-chloro-4-oxo-2-(1-(thiazolo[5,4-d]pyrimidin-7-yloxy)ethyl)quinazolin-3(4H)-yl)phenyl)-3-(2-hydroxyethyl)urea] | 900 nM | 4 nM | 9 nM

Now from value to compound:

Row | IC50 (PI3Kγ) | IC50 (PI3Kδ) | IC50 (PI3Kβ) | Structure (SMILES)
14 | 5600 nM | 33 nM | 42 nM | N#Cc1c(N)ncnc1N1CCC[C@H]1c1nc2cccc(Cl)c2c(=O)n1-c1cccc(NC(=O)NCC(F)(F)F)c1 [Compound 159, (S)-1-(3-(2-(1-(6-amino-5-cyanopyrimidin-4-yl)pyrrolidin-2-yl)-5-chloro-4-oxoquinazolin-3(4H)-yl)phenyl)-3-(2,2,2-trifluoroethyl)urea]
15 | > 10000 nM | 66 nM | 2400 nM | NC(=O)c1cc(F)cc(-n2c([C@@H](Nc3ncnc(N)c3Cl)C3CC3)nc3cccc(Cl)c3c2=O)c1 [Compound 160, (S)-3-(2-(((6-amino-5-chloropyrimidin-4-yl)amino)(cyclopropyl)methyl)-5-chloro-4-oxoquinazolin-3(4H)-yl)-5-fluorobenzamide]
16 | 70 nM | 1 nM | 2 nM | N#Cc1c(N)nc(N)nc1N[C@H](c1nc2cccc(Cl)c2c(=O)n1-c1cc(F)cc(C(N)=O)c1)C1CC1 [Compound 161, (S)-3-(5-chloro-2-(cyclopropyl((2,6-diamino-5-cyanopyrimidin-4-yl)amino)methyl)-4-oxoquinazolin-3(4H)-yl)-5-fluorobenzamide]
17 | 2600 nM | 1 nM | 21 nM | NC(=O)c1cc(F)cc(-n2c([C@@H](Nc3nc(N)nc(N)c3Cl)C3CC3)nc3cccc(Cl)c3c2=O)c1 [Compound 162, (S)-3-(5-chloro-2-(cyclopropyl((2,6-diamino-5-chloropyrimidin-4-yl)amino)methyl)-4-oxoquinazolin-3(4H)-yl)-5-fluorobenzamide]
18 | 8200 nM | 2 nM | 11 nM | NC(=O)c1cncc(-n2c([C@@H](Nc3nc(N)nc(N)c3Cl)C3CC3)nc3cccc(Cl)c3c2=O)c1 [Compound 163, (S)-5-(5-chloro-2-(cyclopropyl((2,6-diamino-5-chloropyrimidin-4-yl)amino)methyl)-4-oxoquinazolin-3(4H)-yl)nicotinamide]
19 | 420 nM | 1 nM | 2 nM | N#Cc1c(N)nc(N)nc1N[C@H](c1nc2cccc(Cl)c2c(=O)n1-c1cncc(C(N)=O)c1)C1CC1 [Compound 164, (S)-5-(5-chloro-2-(cyclopropyl((2,6-diamino-5-cyanopyrimidin-4-yl)amino)methyl)-4-oxoquinazolin-3(4H)-yl)nicotinamide]
